Experimental data from ChEMBL document CHEMBL2401712, “Fused thiazolyl alkynes as potent mGlu5 receptor positive allosteric modulators” (Bioorg Med Chem Lett, 2013).

Assays:
Type in all cases: cell-based
[1] = target: T1, Metabotropic glutamate receptor 5 (Homo sapiens, UniProt P41594); test: Negative allosteric modulation of human mGlu5 receptor expressed in HEK293 cells assessed as inhibition of L-glutamate-induced activity after 1 hr by FLIPR assay relative to control; set-up: concentration or dose not given beside the values; settings: concentration not given here
Target sequence in this assay (P41594 21-1212 limits assumed): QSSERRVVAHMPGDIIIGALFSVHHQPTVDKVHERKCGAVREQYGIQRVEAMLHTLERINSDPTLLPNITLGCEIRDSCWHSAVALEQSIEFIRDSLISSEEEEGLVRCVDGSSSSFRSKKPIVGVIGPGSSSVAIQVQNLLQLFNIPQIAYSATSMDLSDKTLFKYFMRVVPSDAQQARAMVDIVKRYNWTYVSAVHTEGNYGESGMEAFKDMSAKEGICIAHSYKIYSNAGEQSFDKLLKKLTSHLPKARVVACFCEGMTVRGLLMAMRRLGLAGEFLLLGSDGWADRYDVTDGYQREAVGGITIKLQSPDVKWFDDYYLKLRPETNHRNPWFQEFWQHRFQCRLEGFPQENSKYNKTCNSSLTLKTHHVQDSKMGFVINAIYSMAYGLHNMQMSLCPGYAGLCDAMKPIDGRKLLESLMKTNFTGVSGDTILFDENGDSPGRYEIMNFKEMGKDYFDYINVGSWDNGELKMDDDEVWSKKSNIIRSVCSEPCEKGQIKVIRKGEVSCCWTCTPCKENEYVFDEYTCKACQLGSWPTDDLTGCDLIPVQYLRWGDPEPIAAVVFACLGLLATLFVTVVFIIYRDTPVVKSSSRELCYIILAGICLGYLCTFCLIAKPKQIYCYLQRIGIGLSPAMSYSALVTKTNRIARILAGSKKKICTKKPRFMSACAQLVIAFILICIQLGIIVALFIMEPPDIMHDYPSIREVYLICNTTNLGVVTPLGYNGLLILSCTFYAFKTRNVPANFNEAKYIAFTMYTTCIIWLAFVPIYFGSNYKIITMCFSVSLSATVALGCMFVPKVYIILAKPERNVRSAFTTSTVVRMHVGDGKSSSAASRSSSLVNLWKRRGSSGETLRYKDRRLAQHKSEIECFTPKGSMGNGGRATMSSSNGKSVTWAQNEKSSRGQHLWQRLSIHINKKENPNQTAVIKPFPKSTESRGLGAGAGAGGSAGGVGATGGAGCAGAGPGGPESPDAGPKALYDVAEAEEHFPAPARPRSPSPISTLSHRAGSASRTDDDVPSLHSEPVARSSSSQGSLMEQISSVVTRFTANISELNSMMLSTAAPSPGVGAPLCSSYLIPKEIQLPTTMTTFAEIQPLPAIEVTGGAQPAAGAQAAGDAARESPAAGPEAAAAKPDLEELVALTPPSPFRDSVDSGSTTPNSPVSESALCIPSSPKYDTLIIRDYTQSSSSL

[2] = target: T1, Metabotropic glutamate receptor 5; test: Negative allosteric modulation of human mGlu5 receptor expressed in HEK293 cells assessed as inhibition of L-glutamate-induced activity after 1 hr by FLIPR assay
Target sequence in this assay (P41594 whole entry): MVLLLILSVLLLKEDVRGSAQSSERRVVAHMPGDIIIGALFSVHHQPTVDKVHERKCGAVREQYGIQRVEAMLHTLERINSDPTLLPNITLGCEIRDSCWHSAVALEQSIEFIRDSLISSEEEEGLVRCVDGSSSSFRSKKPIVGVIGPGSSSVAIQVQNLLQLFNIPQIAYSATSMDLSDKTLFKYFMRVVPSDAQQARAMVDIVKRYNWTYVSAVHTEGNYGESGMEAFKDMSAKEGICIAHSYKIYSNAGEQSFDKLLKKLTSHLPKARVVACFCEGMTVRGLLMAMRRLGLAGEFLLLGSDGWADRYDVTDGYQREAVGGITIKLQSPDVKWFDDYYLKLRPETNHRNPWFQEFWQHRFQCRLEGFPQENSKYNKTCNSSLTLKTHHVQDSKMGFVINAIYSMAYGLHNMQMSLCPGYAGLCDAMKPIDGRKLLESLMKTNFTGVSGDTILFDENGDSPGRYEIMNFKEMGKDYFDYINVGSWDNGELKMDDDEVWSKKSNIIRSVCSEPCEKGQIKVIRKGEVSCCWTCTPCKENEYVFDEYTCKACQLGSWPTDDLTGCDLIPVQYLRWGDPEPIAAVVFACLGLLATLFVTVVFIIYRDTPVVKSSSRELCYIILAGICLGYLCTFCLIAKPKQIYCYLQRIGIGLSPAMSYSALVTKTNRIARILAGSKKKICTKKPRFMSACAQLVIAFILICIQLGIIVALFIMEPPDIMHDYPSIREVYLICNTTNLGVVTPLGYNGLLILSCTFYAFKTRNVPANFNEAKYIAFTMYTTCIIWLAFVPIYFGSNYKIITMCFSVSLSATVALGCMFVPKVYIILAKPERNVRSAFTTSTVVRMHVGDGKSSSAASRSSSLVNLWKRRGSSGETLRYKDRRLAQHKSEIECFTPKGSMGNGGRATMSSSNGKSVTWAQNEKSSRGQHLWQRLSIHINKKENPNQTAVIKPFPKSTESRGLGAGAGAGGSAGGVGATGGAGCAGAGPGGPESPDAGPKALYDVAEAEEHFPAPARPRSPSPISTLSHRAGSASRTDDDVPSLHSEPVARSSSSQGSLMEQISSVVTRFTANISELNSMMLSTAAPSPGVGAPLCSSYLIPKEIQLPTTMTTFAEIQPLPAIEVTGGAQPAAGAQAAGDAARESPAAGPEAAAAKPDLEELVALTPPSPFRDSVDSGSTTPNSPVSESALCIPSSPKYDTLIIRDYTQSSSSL

[3] = target: T1, Metabotropic glutamate receptor 5; test: Positive allosteric modulation of human mGlu5 receptor expressed in HEK293 cells assessed as potentiation of L-glutamate-induced activity after 1 hr by FLIPR assay relative to control
Target sequence in this assay (P41594 21-1212 limits assumed): as the sequence (P41594 21-1212 limits assumed) above

[4] = target: T1, Metabotropic glutamate receptor 5; test: Positive allosteric modulation of human mGlu5 receptor expressed in HEK293 cells assessed as potentiation of L-glutamate-induced activity after 1 hr by FLIPR assay
Target sequence in this assay (P41594 whole entry): as the sequence (P41594 whole entry) above

Row | Compound | inhibition [1] [%] | IC50 [2] [nM] | Emax [3] [%] | EC50 [4] [nM]
1 | CC(C)S(=O)(=O)N1CCc2nc(C#Cc3ccccc3)sc2C1 | 75 | 11 | -4 | > 10000
2 | O=C(CC1CCOCC1)N1CCc2nc(C#Cc3ccccc3)sc2C1 | -2 | > 10000 | 45 | 470
3 | O=S(=O)(N1CCCCC1)N1Cc2nc(C#Cc3ccccc3)sc2C1 |  | > 10000 | 89 | 250
4 | O=C(N1CCC(F)(F)CC1)N1CCc2nc(C#Cc3ccccc3)sc2C1 | 3 | > 10000 | 100 | 72
5 | CN(C)S(=O)(=O)N1CCc2nc(C#Cc3ccccc3)sc2C1 | 71 | 5.7 | -6 | > 10000
6 | Cc1cccc(C(=O)N2CCc3nc(C#Cc4ccccc4)sc3C2)n1 | 19 | > 10000 | 120 | 160
7 | O=C(N1CCc2nc(C#Cc3ccccc3)sc2C1)N1CC(F)(F)C1 | -9 | > 10000 | 94 | 26
8 | CC1CC(C(=O)N2CCc3nc(C#Cc4ccccc4)sc3C2)C1 (stereo unspecified) | 13 | > 10000 | 120 | 81
9 | O=C(C1CC12CCC2)N1CCc2nc(C#Cc3ccccc3)sc2C1 (stereo unspecified) | 10 | > 10000 | 95 | 3.9
10 | O=C(C1CCOCC1)N1CCc2nc(C#Cc3ccccc3)sc2C1 |  | > 10000 | 120 | 290
11 | O=C(C1CCCC1)N1CCc2nc(C#Cc3ccccc3)sc2C1 | 42 | > 10000 | 280 | 19
12 | O=C([C@H]1CC2CCC1C2)N1CCc2nc(C#Cc3ccccc3)sc2C1 (stereo partly specified) | 8 | > 10000 | 280 | 18
13 | Cc1cc(C(=O)N2CCc3nc(C#Cc4ccccc4)sc3C2)no1 |  | > 10000 | 71 | 1600
14 | CC1CCC(C(=O)N2CCc3nc(C#Cc4ccccc4)sc3C2)CC1 (stereo unspecified) | 0 | > 10000 | 80 | 190
15 | Cc1cccc(C(=O)N2CCc3nc(C#Cc4ccccc4)sc3C2)c1 |  | > 10000 | 170 | 99
16 | COC1CC(C(=O)N2CCc3nc(C#Cc4ccccc4)sc3C2)C1 (stereo unspecified) | -0.2 | > 10000 | 43 | 640
17 | Fc1cccc(C#Cc2nc3c(s2)CN(C2CCCC2)CC3)c1 | 94 | 640 | -44 | > 10000
18 | N#Cc1cccc(C(=O)N2CCc3nc(C#Cc4ccccc4)sc3C2)c1 | 16 | > 10000 | 150 | 71
19 | O=C(C1CCC(F)(F)CC1)N1CCc2nc(C#Cc3ccccc3)sc2C1 | 10 | > 10000 | 190 | 70
20 | O=C(N1CCc2nc(C#Cc3ccccc3)sc2C1)N1CCC(F)(F)C1 | 26 | > 10000 | 170 | 53
21 | O=S(=O)(N1CCOCC1)N1CCc2nc(C#Cc3ccccc3)sc2C1 | 89 | 13 | 1.5 | > 10000

Row | Compound | inhibition [1] [%] | IC50 [2] [nM] | Emax [3] [%] | EC50 [4] [nM]
22 | O=C(C1CCCCC1)N1CCc2nc(C#Cc3ccccc3)sc2C1 |  | > 10000 | 153 | 167
23 | O=C(C1CC(F)C1)N1CCc2nc(C#Cc3ccccc3)sc2C1 (stereo unspecified) | 38 | > 10000 | 61 | 85
24 | O=S(=O)(C1CCCCC1)N1Cc2nc(C#Cc3ccccc3)sc2C1 |  | > 10000 | 110 | 150
25 | O=S(=O)(C1CCCCC1)N1CCc2nc(C#Cc3ccccc3)sc2C1 | 81 | 480 | -17 | > 10000
26 | O=S(=O)(N1CCCCC1)N1CCc2nc(C#Cc3ccccc3)sc2C1 | 86 | 780 | 6 | > 10000
27 | COc1cccc(C(=O)N2CCc3nc(C#Cc4ccccc4)sc3C2)c1 | 6.7 | > 10000 | 150 | 29
28 | O=C(N1CCc2nc(C#Cc3ccccc3)sc2C1)N1CC(F)C1 | 9 | > 10000 | 27 | > 10000
29 | O=C(C1CCOC1)N1CCc2nc(C#Cc3ccccc3)sc2C1 (stereo unspecified) | 45 | > 10000 | 96 | 130
30 | Fc1cccc(C#Cc2nc3c(s2)CN(C2CCOC2)CC3)c1 (stereo unspecified) | 91 | 400 | -47 | > 10000
31 | O=S(=O)(N1CCCC1)N1CCc2nc(C#Cc3ccccc3)sc2C1 | 78 | 36 | -9 | > 10000
32 | O=C(C1CCCCO1)N1CCc2nc(C#Cc3ccccc3)sc2C1 (stereo unspecified) | 35 | > 10000 | 100 | 320
33 | CN1CCC(C(=O)N2CCc3nc(C#Cc4ccccc4)sc3C2)CC1 |  | > 10000 | 70 | 1200
34 | O=C(C1CC(F)(F)C1)N1CCc2nc(C#Cc3ccc(F)cc3)sc2C1 | 13 | > 10000 | 73 | 150
35 | O=C(N1CCC(F)CC1)N1CCc2nc(C#Cc3ccccc3)sc2C1 | 15 | > 10000 | 100 | 74
36 | O=C(c1cccc(F)c1)N1CCc2nc(C#Cc3ccccc3)sc2C1 |  | > 10000 | 160 | 30
37 | O=C(C1CC(F)(F)C1)N1CCc2nc(C#Cc3cccc(F)c3)sc2C1 | 45 | > 10000 | 72 | 2.5
38 | CC1CCCC(C(=O)N2CCc3nc(C#Cc4ccccc4)sc3C2)C1 (stereo unspecified) | 20 | > 10000 | 260 | 100
39 | CC(C)S(=O)(=O)N1Cc2nc(C#Cc3ccccc3)sc2C1 | 74 | 140 | -35 | > 10000
40 | O=C(c1cccc(C(F)(F)F)c1)N1CCc2nc(C#Cc3ccccc3)sc2C1 | 12 | > 10000 | 170 | 11
41 | O=C(N1CCCCC1)N1CCc2nc(C#Cc3ccccc3)sc2C1 |  | > 10000 | 120 | 75

More lines, now with the values ahead:

Row | inhibition [1] [%] | IC50 [2] [nM] | Emax [3] [%] | EC50 [4] [nM] | Compound
42 |  | > 10000 | 243 | 112 | O=C1NCCc2nc(C#Cc3ccccc3)sc21
43 |  | > 10000 | 44 | > 10000 | COc1ccccc1C#Cc1nc2c(s1)C(=O)NCC2
44 |  | > 10000 | 320 | 1500 | O=C1NCCc2nc(C#Cc3ccccc3F)sc21
45 | 87 | 72 | -2 | > 10000 | CCN1CCc2nc(C#Cc3cccc(F)c3)sc2C1
46 | 79 | 38 | -17 | > 10000 | CCC(=O)N1CCc2nc(C#Cc3ccccc3)sc2C1
47 | 19 | > 10000 | 87 | 17 | CC1CC(C(=O)N2CCc3nc(C#Cc4cccc(F)c4)sc3C2)C1 (stereo unspecified)
48 |  | > 10000 | 310 | 5200 | O=C1NCCc2nc(C#Cc3ccc(F)cc3)sc21
49 | 3.7 | > 10000 | 110 | 220 | Cc1nc(C(=O)N2CCc3nc(C#Cc4ccccc4)sc3C2)cs1
50 |  | > 10000 | 310 | 290 | O=C1NCCc2nc(C#Cc3cccc(F)c3)sc21
51 | 91 | 200 | -40 | > 10000 | Fc1cccc(C#Cc2nc3c(s2)CN(C2CCC2)CC3)c1
52 | 59 | 23 | 11 | > 10000 | O=C1c2sc(C#Cc3ccccc3)nc2CN1C1CC1
53 | 94 | 650 | -48 | > 10000 | CC(C)CN1CCc2nc(C#Cc3ccccc3)sc2C1
54 |  | > 10000 | 50 | > 10000 | Cc1cccc(C#Cc2nc3c(s2)C(=O)NCC3)c1
55 |  | > 10000 | 150 | 2.5 | O=C1c2sc(C#Cc3ccccc3)nc2CN1C1CCCC1
56 |  | > 10000 | 120 | 2500 | O=C1NCCc2nc(C#Cc3cccc(Cl)c3)sc21
57 | 79 | 90 | -18 | > 10000 | CC(=O)N1CCc2nc(C#Cc3ccccc3)sc2C1
58 | 51 | 1200 | -6 | > 10000 | CCN1CCc2nc(C#Cc3ccccc3)sc2C1
59 | 28 | > 10000 | 32 | 110 | CCCCN1CCc2nc(C#Cc3ccccc3)sc2C1
60 | 61 | 290 | -13 | > 10000 | O=C(C1CC1)N1CCc2nc(C#Cc3ccccc3)sc2C1
61 |  | > 10000 | 120 | 51 | O=C1NCCc2nc(C#Cc3cccnc3)sc21
62 | 6.3 | > 10000 | 42 | 9.4 | CC1CC1C(=O)N1CCc2nc(C#Cc3ccccc3)sc2C1 (stereo unspecified)
63 |  | > 10000 | 180 | 100 | CC(C)CCN1CCc2nc(C#Cc3ccccc3)sc2C1
64 | 81 | 370 | 3 | > 10000 | O=C(C1CCC1)N1CCc2nc(C#Cc3ccccc3)sc2C1
65 | -1 | > 10000 | 89 | 790 | O=C(C1CCCO1)N1CCc2nc(C#Cc3ccccc3)sc2C1 (stereo unspecified)
